In brackets after ≈: the same amount, converted by molar mass. Like-named read-outs stand apart in the source and are kept apart here.
How the values were obtained:
C-Raf = biological target: T1, C-Raf (Homo sapiens, UniProt P04049, Y340E/Y341E); assay: In Vitro Raf Activity Determination (Alpha Screen, phosphorylation of kinase dead MEK1); type: biochemical
T1 construct: His tag (implied by nickel chromatography) and/or StrepII tag; made in house; host or cells: Sf9 insect cells (baculovirus) for CRAF and h14-3-3 zeta; E. coli for MEK1
T1 sequence (P04049 whole entry Y340E/Y341E): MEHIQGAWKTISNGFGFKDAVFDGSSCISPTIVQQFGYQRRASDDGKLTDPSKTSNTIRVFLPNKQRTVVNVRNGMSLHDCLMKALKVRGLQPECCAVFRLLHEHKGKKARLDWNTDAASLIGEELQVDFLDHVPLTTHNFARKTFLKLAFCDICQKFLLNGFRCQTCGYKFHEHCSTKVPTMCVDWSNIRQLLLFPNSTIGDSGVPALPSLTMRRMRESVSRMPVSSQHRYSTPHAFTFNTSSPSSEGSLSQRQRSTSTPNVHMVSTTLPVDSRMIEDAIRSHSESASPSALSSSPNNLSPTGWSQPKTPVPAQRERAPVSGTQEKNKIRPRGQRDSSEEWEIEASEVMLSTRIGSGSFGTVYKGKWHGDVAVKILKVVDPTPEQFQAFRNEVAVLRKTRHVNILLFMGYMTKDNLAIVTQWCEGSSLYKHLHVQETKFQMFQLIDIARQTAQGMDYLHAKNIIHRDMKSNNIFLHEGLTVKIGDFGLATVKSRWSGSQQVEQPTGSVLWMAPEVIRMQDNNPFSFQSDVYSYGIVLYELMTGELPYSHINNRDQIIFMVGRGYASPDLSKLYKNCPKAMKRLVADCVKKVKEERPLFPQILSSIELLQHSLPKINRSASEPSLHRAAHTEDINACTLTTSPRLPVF
T1 sequence (P63104 whole entry partner): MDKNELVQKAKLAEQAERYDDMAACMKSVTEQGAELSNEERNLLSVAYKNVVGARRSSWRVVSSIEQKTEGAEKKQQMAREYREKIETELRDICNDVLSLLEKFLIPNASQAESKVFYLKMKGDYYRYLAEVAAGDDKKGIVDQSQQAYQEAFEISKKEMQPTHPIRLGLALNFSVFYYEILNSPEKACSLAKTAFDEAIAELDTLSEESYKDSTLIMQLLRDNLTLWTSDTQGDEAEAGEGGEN
Excerpt: CRAF cDNA was subcloned as full length protein, with Y340E and Y341E activating mutations, into a baculovirus expression vector for Sf9 insect cell expression. h14-3-3 zeta cDNA was subcloned into a baculovirus expression vector for SF9 insect cell expression. Sf9 cells co-expressing both proteins were lysed and subjected to immobilized nickel chromatography and eluted with Imidazole. A second column (StrepII binding column) was used and eluted with desthiobiotin. Protein Tags were removed using Prescission enzyme and the protein was further purified using a flowthrough step to remove tags.
C-Raf TR refers to a truncated C-Raf protein, a Δ1-324 deletion mutant. C-Raf FL refers to the full-length C-Raf protein.
Full length MEK1 with an inactivating K97R ATP binding site mutation is utilized as a RAF substrate. The MEK1 cDNA was subcloned with an N-terminal (his)6 tag into a vector for E. Coli expression. The MEK1 substrate was purified from E. Coli lysate by nickel affinity chromatography followed by anion exchange. The final MEK1 preparation was biotinylated (Pierce EZ-Link Sulfo-NHS-LC-Biotin) and concentrated.
Assay Materials: Assay buffer is 50 mM Tris, pH 7.5, 15 mM MgCl2, 0.01% Bovine Serum Albumin (BSA) and 1 mM dithiothreitol (DTT); Stop buffer is 60 mM ethylenediaminetetraacetic acid (EDTA) and 0.01% Tween® 20; b-Raf (V600E), active; biotinylated Mek, kinase dead; Alpha Screen detection kit (available from PerkinElmer™ #6760617R); Anti phospho-MEK1/2 (available from Cell Signaling Technology, Inc. #9121); 384 well low volume assay plates (White Greiner® plates).
Assay conditions: b-Raf (V600E) approximately 4 pM; c-Raf approximately 4 nM; biotinylated Mek, kinase dead approximately 10 nM; ATP 10 μM for BRAF (V600E) and 1 μM for CRAF; Pre-incubation time with compounds 60 minutes at room temperature; Reaction time 1 or 3 hours at room temperature.
Assay protocol: Raf and biotinylated Mek (kinase dead) were combined at 2× final concentrations in assay buffer (50 mM Tris, pH 7.5, 15 mM MgCl2, 0.01% BSA and 1 mM DTT) and dispensed […] per well in assay plates (Greiner white 384 well assay plates #781207) containing […] of 40× of a Raf kinase inhibitor test compound diluted in 100% DMSO. The plate was incubated for 60 minutes at room temperature. The Raf kinase activity reaction was started by the addition of […] per well of 2×ATP diluted in assay buffer. After 3 hours (b-Raf(V600E)) or 1 hour (c-Raf). The reactions were stopped and the phosphorylated product was measured using a rabbit anti-p-MEK (Cell Signaling, #9121) antibody and the Alpha Screen IgG (ProteinA) detection Kit (PerkinElmer #6760617R), by the addition of […] to the well of a mixture of the antibody (1:2000 dilution) and detection beads (1:2000 dilution of both beads) in Stop/bead buffer (25 mM EDTA, 50 mM Tris, pH 7.5, 0.01% Tween20). The additions were carried out under dark conditions to protect the detection beads from light. A lid was placed on top of the plate and incubated for 1 hour at room temperature, after which the luminescence was read on a PerkinElmer Envision instrument. The concentration of each compound for 50% inhibition (IC50) was calculated by non-linear regression using XL Fit data analysis software.

[1] = high throughput solubility assay; type: physicochemical; settings: for solubility: buffer solution, thermodynamic from solid
Method: Solubility of the compounds of the invention was assessed in a high throughput solubility assay: compounds were received as 10 mM DMSO solutions. The DMSO stock solution was then transferred into a microtiter plate. The DMSO solvent was dried with a solvent evaporator (GeneVac). After the addition of buffer solution (pH 6.8, pH 4.0 or FaSSIF), the plate was sealed and shaken for 16-24 hours at room temperature. The plate was centrifuged for phase separation and the supernatant quantified by a RapidFire 365 High-throughput MS System (Agilant) coupled with a mass spectrometer (Sciex), using a calibration curve constructed with the same DMSO stock solution. Solubility results (μM) are obtained in triplicate.

[2] = c-Raf approximately 4 nM, ATP 1 μM, pre-incubation 60 minutes, reaction 1 hour at room temperature, read-out: C-Raf
[3] = phosphate Example itself, buffer (pH 6.8, pH 4.0 or FaSSIF) not given, 16-24 hours at room temperature

With `Cc1ccc(NC(=O)c2ccnc(C(F)(F)F)c2)cc1-c1cc(OCCOP(=O)(O)O)nc(N2CCOCC2)c1` [Example 1, 2-((4-(2-methyl-5-(2-(trifluoromethyl)isonicotinamido)phenyl)-6-morpholinopyridin-2-yl)oxy)ethyl dihydrogen phosphate] the IC50 (C-Raf; read-out: inhibitory efficacy for C-Raf) was 0.1 nM, the “improvement of solubility compared with the corresponding non-phosphate molecule” value ([1]; 874 μM versus 18 μM) was “greater than 48 fold” and the solubility ([1]; buffer not stated) was 874 µM.
For `Cc1ccc(NC(=O)c2cccc(C(F)(F)F)c2)cc1-c1cc(OCCOP(=O)(O)O)nc(N2CCOC[C@H]2C)c1` [Example 2, (R)-2-((4-(2-methyl-5-(3-(trifluoromethyl)benzamido)phenyl)-6-(3-methylmorpholino)pyridin-2-yl)oxy)ethyl dihydrogen phosphate], the IC50 (C-Raf; [2]) was 6 nM and the solubility [1, 3] was < 1000 µM.
An IC50 (C-Raf; [2]) of 0.024 nM and a solubility [1, 3] of 987 µM were found for `Cc1ccc(NC(=O)c2cc(C(F)(F)F)ccn2)cc1-c1cc(OC[C@@H](O)COP(=O)(O)O)nc(N2CCOCC2)c1` [Example 3, (R)-2-hydroxy-3-((4-(2-methyl-5-(4-(trifluoromethyl)picolinamido)phenyl)-6-morpholinopyridin-2-yl)oxy)propyl dihydrogen phosphate] in this work.
An IC50 (C-Raf; [2]) of 0.7 nM and a solubility [1, 3] of 617 µM were found for `Cc1ncc(NC(=O)c2cccc(C(F)(F)F)c2)cc1-c1cc(OCCOP(=O)(O)O)nc(N2CCOC[C@H]2C)c1` [Example 4, (R)-2-((2-methyl-6′-(3-methylmorpholino)-5-(3-(trifluoromethyl)-benzamido)-[3,4′-bipyridin]-2′-yl)oxy)-ethyl dihydrogen phosphate] in this work.
An IC50 (C-Raf; [2]) of 0.1 nM and a solubility [1, 3] of 725 µM were found for `Cc1ncc(NC(=O)c2cccc(C(F)(F)F)c2)cc1-c1cc(OCCOP(=O)(O)O)nc(N2CCOCC2)c1` [Example 5, 2-((2-methyl-6′-morpholino-5-(3-(trifluoromethyl)benz amido)-[3,4′-bipyridin]-2′-yl)oxy)ethyl dihydrogen phosphate] in this work.
An IC50 (C-Raf; [2]) of 0.3 nM and a solubility [1, 3] of 675 µM were found for `Cc1ccc(NC(=O)c2ccnc(C(C)(F)F)c2)cc1-c1cc(OCCOP(=O)(O)O)nc(N2CCOC[C@H]2C)c1` [Example 6, (R)-2-((4-(5-(2-(1,1-difluoroethyl)isonicotin amido)-2-methylphenyl)-6-(3-methylmorpholino)pyridin-2-yl)oxy)ethyl dihydrogen phosphate] in this work.
An IC50 (C-Raf; [2]) of 0.05 nM and a solubility [1, 3] of 124 µM were found for `Cc1ccc(NC(=O)c2cccc(C(F)(F)F)c2)cc1-c1cc(OCCOP(=O)(O)O)nc(N2CCOCC2)c1` [Example 7, 2-((4-(2-methyl-5-(3-(trifluoromethyl)benzamido)phenyl)-6-morpholinopyridin-2-yl)oxy)ethyl dihydrogen phosphate] in this work.
An IC50 (C-Raf; [2]) of 0.5 nM and a solubility [1, 3] of 841 µM were found for `Cc1ccc(NC(=O)c2ccnc(C(C)(C)F)c2)cc1-c1cc(OCCOP(=O)(O)O)nc(N2CCOCC2)c1` [Example 9, 2-((4-(5-(2-(2-fluoropropan-2-yl)isonicotinamido)-2-methylphenyl)-6-morpholinopyridin-2-yl)oxy)ethyl dihydrogen phosphate] in this work.
An IC50 (C-Raf; [2]) of 0.3 nM and a solubility [1, 3] of 635 µM were found for `Cc1ccc(NC(=O)c2ccnc(C(C)(F)F)c2)cc1-c1cc(OCCOP(=O)(O)O)nc(N2CCOCC2)c1` [Example 10, 2-((4-(5-(2-(1,1-difluoroethyl)isonicotin amido)-2-methylphenyl)-6-morpholinopyridin-2-yl)oxy)ethyl dihydrogen phosphate] in this work.
With `Cc1ccc(NC(=O)c2ccnc(C(C)(C)F)c2)cc1-c1cc(OCCOP(=O)(O)O)nc(N2CCOC[C@H]2C)c1` [Example 11, (R)-2-((4-(5-(2-(2-fluoropropan-2-yl)isonicotinamido)-2-methylphenyl)-6-(3-methylmorpholino)pyridin-2-yl)oxy)ethyl dihydrogen phosphate] the IC50 (C-Raf; [2]) was 2 nM and the solubility [1, 3] was < 1000 µM.
An IC50 (C-Raf; [2]) of 2 nM and a solubility [1, 3] of 939 µM were found for `Cc1ccc(NC(=O)c2ccnc(C(F)(F)F)c2)cc1-c1cc(OCCOP(=O)(O)O)nc(N2CCOC[C@H]2C)c1` [Example 12, (R)-2-((4-(2-methyl-5-(2-(trifluoromethyl)-isonicotinamido)phenyl)-6-(3-methyl-morpholino)pyridin-2-yl)oxy)ethyl dihydrogen phosphate] in this work.
An IC50 (C-Raf; [2]) of 0.03 nM and a solubility [1, 3] of 792 µM were found for `Cc1ccc(NC(=O)c2ccnc(C(F)(F)F)c2)cc1-c1cnc(OCCOP(=O)(O)O)c(N2CCOCC2)c1` [Example 13, 2-((5-(2-methyl-5-(2-(trifluoromethyl)isonicotinamido)phenyl)-3-morpholinopyridin-2-yl)oxy)ethyl dihydrogen phosphate] in this work.
An IC50 (C-Raf; [2]) of 0.04 nM and a solubility [1, 3] of 897 µM were found for `Cc1ccc(NC(=O)c2ccnc(C(C)(F)F)c2)cc1-c1cnc(OCCOP(=O)(O)O)c(N2CCOCC2)c1` [Example 14, 2-((5-(5-(2-(1,1-difluoroethyl)isonicotin amido)-2-methylphenyl)-3-morpholinopyridin-2-yl)oxy)ethyl dihydrogen phosphate] in this work.
An IC50 (C-Raf; [2]) of 0.4 nM and a solubility [1, 3] of 936 µM were found for `Cc1ccc(NC(=O)c2ccnc(C(C)(C)F)c2)cc1-c1cnc(OCCOP(=O)(O)O)c(N2CCOCC2)c1` [Example 15, 2-((5-(5-(2-(2-fluoropropan-2-yl)isonicotinamido)-2-methylphenyl)-3-morpholinopyridin-2-yl)oxy)ethyl dihydrogen phosphate] in this work.
In the case of `Cc1ccc(NC(=O)c2cccc(C(F)(F)F)c2)cc1-c1cnc(OCCOP(=O)(O)O)c(N2CCOCC2)c1` [Example 16, 2-((5-(2-methyl-5-(3-(trifluoromethyl)benzamido)phenyl)-3-morpholinopyridin-2-yl)oxy)ethyl dihydrogen phosphate], the IC50 (C-Raf; [2]) is reported as 1 nM and the solubility [1, 3] is reported as < 1000 µM.
An IC50 (C-Raf; [2]) of 0.02 nM and a solubility [1, 3] of 253 µM were found for `Cc1ccc(NC(=O)c2cc(C(F)(F)F)ccn2)cc1-c1cc(OCCOP(=O)(O)O)nc(N2CCOCC2)c1` [Example 17, 2-((4-(2-methyl-5-(4-(trifluoromethyl)picolin amido)phenyl)-6-morpholinopyridin-2-yl)oxy)ethyl dihydrogen phosphate] in this work.
An IC50 (C-Raf; [2]) of 0.02 nM was found for `Cc1ncc(NC(=O)c2cccc(C(F)(F)F)c2)cc1-c1cnc(OCCOP(=O)(O)O)c(N2CCOCC2)c1` [Example 18, 2-((2′-methyl-5-morpholino-5′-(3-(trifluoromethyl)benzamido)-[3,3′-bipyridin]-6-yl)oxy)ethyl dihydrogen phosphate] in this work.
A solubility ([1]; buffer not stated) of 18 µM (≈ 9.04 µg/mL) was found for `Cc1ccc(NC(=O)c2ccnc(C(F)(F)F)c2)cc1-c1cc(OCCO)nc(N2CCOCC2)c1` [N-(3-(2-(2-hydroxyethoxy)-6-morpholinopyridin-4-yl)-4-methylphenyl)-2-(trifluoromethyl)isonicotinamide, reference compound] in this work.

— patent US9573969B2, “Compounds and compositions as kinase inhibitors” (NOVARTIS AG, priority 2014, dated 2017)
